# In paper PMC10644720 (Frontiers in Pharmacology, 2023):
# Read-outs that look alike come from different tables or passages of the source.
# What was measured:
# human washed platelets [1] = experiment: Platelet aggregation assay (Chrono-Log aggregometer); assay type: cell-based; details: for IC50: Homo sapiens, Platelet, 10 min, 10 min incubation at 37°C
# Method: Blood was collected from a median cubital vein using a 3.8% sodium citrate anticoagulation tube with a 1:9 dilution ratio. The platelets were washed using a previously described method with slight modification ([Babur et al., 2020]; [Uphaus et al., 2022]). The blood was centrifuged at room temperature at 300 × g for 10 min to separate platelet-rich plasma (PRP). PRP was added to 50 ng/mL of PGE1 and 5 mM EDTA, centrifuged at 2,000 × g for 2 min at room temperature, and the platelet precipitate was obtained after discarding the supernatant. The modified HEPES-Tyrode’s buffer (20 mM 4-(2-Hydroxyethyl)-1-piperazine ethane sulfonic acid [HEPES], pH 7.3, 129 mM NaCl, 2.9 mM KCl, 12 mM NaHCO3, 0.34 mM Na2HPO4, 20 mM HEPES, 5 mM D-Glucose, 1 mM MgCl2) was used to resuspend the platelets, added with 50 ng/mL PGE1 and 5 mM EDTA, and the platelets were washed by centrifugation at 2,000 ×g for 2 min at room temperature. The washed platelets (WP) were resuspended using modified HEPES-Tyrode’s buffer, and the platelet count was adjusted to 150–200 × 10^9/L.
# Platelet aggregation and ATP release were detected using the Chrono-Log platelet aggregation instrument (Chrono-Log Corp., Havertown, Pennsylvania, United States), as previously reported ([Babur et al., 2020]). […] In addition, 1 mM CaCl2 and different platelet activators (ADP, collagen, and thrombin; Chrono-Log Corp., Havertown, Pennsylvania, United States; U46619, from Sigma, St. Louis, MO, United States; convulxin, sc-202554 from Santa Cruz Biotechnology, Santa Cruz, CA, United States) were added to each group before the start of the aggregation assay. For the ATP release experiments, the platelets were incubated with 50 ng/mL luciferin and D-luciferase (Cat No. 395; Chrono-Log Corp.) for 2 min before the addition of activators. The platelet aggregation and ATP release curves were traced during experiments.
# human washed platelets [2] = experiment: Platelet intracellular Ca2+ release assay (Fluo-3AM); assay type: cell-based; details: collagen (10 μg/mL)- and convulxin (5 ng/mL)-induced
# Method: The assay was performed as previously reported with minor modifications ([Arthur et al., 2012]; [Ye et al., 2020]). Briefly, WPs (500 × 10^9/L) were labeled with 5 μM Fluo-3AM (Cat No. IF0150; Solarbio) or 10 μM DCFH-DA (Cat No. D6883; Sigma, St. Louis, MO, United States) at 37°C for 30 min protected from light. […] In addition, 1 mM CaCl2 and collagen or convulxin were added to start the reaction. Ca^2+ release and ROS production were analyzed using a Fluoroskan Ascent fluorometer (Thermo Fisher, Waltham, Massachusetts, US) at excitation (ex)/emission (em) = 490/530 nm, and the curves were plotted in real-time.
# human washed platelets [3] = experiment: Clot retraction experiment; assay type: cell-based; details: luteolin 100 μM; 0.1 U/mL thrombin
# Method: Clot retraction experiments were completed using the previously reported method ([Zhang et al., 2015]). […] Then, 200 μL of WPs were placed in a siliconized glass tube with 1 mM CaCl2, 0.1 U/mL thrombin, and 10 µL PPP, mixed well, and left at 37°C. Pictures were taken every 5 min. The clot size was calculated using ImageJ software.
# [4] = tested on: mesenteric artery thrombosis; experiment: Ferric chloride-induced mesenteric thrombosis in mice; assay type: in vivo, C57BL/6 mice; details: luteolin 35 μM/kg or aspirin 0.5 mM/kg i.p., 30 min before FeCl3
# Method: A method reported in the literature was used to observe mesenteric artery thrombosis in mice ([Bonnard and […], 2015]). […] The mice were anesthetized by an intraperitoneal injection of pentobarbital (45 mg/kg). They were given an intraperitoneal injection of DMSO, luteolin, or aspirin. They were also given an orbital vein injection of 5 μg/kg rhodamine (Cat No. 83697-250 MG; Sigma-Aldrich, St. Louis, MO, United States) ([Bonnard and […], 2015]), respectively. The mesenteric vessels were exposed by opening the abdominal cavity, and small mesenteric arteries with a diameter of approximately 150-250 μm were selected under the microscope. […] During thrombosis, images were taken every 1 min for the first 10 min and every 5 min after 10 min using an MSHOT MD50 camera (Micro Shot Technology Ltd., Guangzhou, China) and an Olympus ix73 microscope (Olympus Corp., Shinjuku, Japan). […] The size of the thrombus formation was calculated using ImageJ software.
# [5] = Coagulation function in mice; assay type: in vivo, C57BL/6 mice; details: 30 min after administration
# Method: Then, 30 min after administration, blood was removed from the eyes and anticoagulated with 3.8% sodium citrate. The plasma was obtained by centrifugation at 3,000 rpm for 10 min at room temperature, and coagulation-related indexes were measured using an STA Compact Max (Diagnostica Stago, Inc. Asnières-sur-Seine, France).
# [6] = Luteolin in vivo toxicity experiments (15 days i.p.); design: species or system C57BL/6 mice
# Method: Blood was collected from the orbits every 3 days for blood tests. On the second day, after 15 days of intraperitoneal administration, pentobarbital (45 mg/kg) was injected intraperitoneally for anesthesia, and blood was sampled from the eyes. Whole blood was left for 30–60 min, and the supernatant was centrifuged at 3,000 rpm for serum liver and kidney function testing using Unicel DxC600 (Beckman Coulter, Inc. Brea, California, US). Finally, the mice were sacrificed by cervical dislocation, and the sternum was fixed in 4% paraformaldehyde. […]
# [7] = luteolin 35 μM/kg i.p. daily for 15 days
# [8] = luteolin 35 μM/kg i.p. daily, 15 days, mean ± SEM
compound,measurement,setting,value
O=c1cc(-c2ccc(O)c(O)c2)oc2cc(O)cc(O)c12 [Luteolin],effect on platelet aggregation,"human washed platelets [1]; 25 μM luteolin, ADP (5 μM)-induced",no significant effect
same,effect on platelet aggregation,"human washed platelets [1]; 25 μM luteolin, U46619 (3 μM)-induced",no significant effect
same,effect on platelet aggregation,"human washed platelets [1]; 25 μM luteolin, thrombin (0.05 U/mL)-induced",no significant effect
same,effect on platelet aggregation,"human washed platelets [1]; 100 μM luteolin, U46619-induced",significantly inhibited
same,IC50,"human washed platelets [1]; read-out: IC50, inhibition of platelet aggregation, convulxin (5 ng/mL)-induced",8.66 µM
same,IC50,"human washed platelets [1]; collagen (10 μg/mL)-induced, read-out: IC50, inhibition of platelet aggregation",4.81 µM
same,platelet calcium release,human washed platelets [2],dose-dependently inhibited
same,thrombin-induced clot retraction,human washed platelets [3],inhibited
same,time of clot obstruction of blood vessels,[4],significantly prolong
same,time of initial thrombus formation,[4],Neither the 0.5 mM/kg aspirin group or 35 μM/kg luteolin group prolonged
same,activated partial thromboplastin time (APTT),[5],no significant effects
same,plasma concentration of fibrinogen,[5],no significant effects
same,prothrombin time (PT),[5],no significant effects
same,thrombin time (TT),[5],no significant effects
same,liver and kidney functions,[6]; luteolin 35 μM/kg for 15 days,normal
same,mean platelet volume vs DMSO,[6]; [7],no significant differences
same,megakaryocyte counts in bone marrow vs DMSO,[6]; [7],no significant differences
same,peripheral platelet count vs DMSO,[6]; [7],no significant differences
same,Alanine aminotransferase,[6]; [8],66.21 ± 5.35 U/L
same,Alkaline phosphatase,[6]; [8],75.00 ± 7.34 U/L
same,Aspartate aminotransferase,[6]; [8],147.20 ± 7.03 U/L
same,Blood urea nitrogen,[6]; [8],10.14 ± 0.40 mmol/L
same,Creatinine,[6]; [8],17.22 ± 2.61 µmol/L
same,Granulocyte %,[6]; [8],25.22 ± 0.74%
same,Granulocytes,[6]; [8],0.36 ± 0.03 ×10^9/L
same,Lymphocyte %,[6]; [8],57.39 ± 1.59%
same,Lymphocytes,[6]; [8],0.80 ± 0.04 ×10^9/L
same,Monocyte %,[6]; [8],17.39 ± 1.56%
same,Monocytes,[6]; [8],0.25 ± 0.04 ×10^9/L
same,Red blood cells,[6]; [8],0.65 ± 0.03 ×10^12/L
same,Total bilirubin,[6]; [8],5.24 ± 0.49 µmol/L
same,White blood cells,[6]; [8],1.35 ± 0.10 ×10^9/L
same,γ-glutamyl transferase,[6]; [8],6.20 ± 1.24 U/L
same,toxic effects in C57BL/6 mice,"[6]; mouse, in vivo",no significant toxic effects
